From PubChem BioAssay AID256 (DTP/NCI, 2004)
“And” between values parts separate entries of the source, which are not always exact repeats. Identical values can stand only once. Inconclusive results and toxic doses are left out. Rule for the calls: active = survival T/C of 150% or more; inactive = T/C below 125% in these data.

Test system: CD2F1 mice, L1210 leukemia ip, survival T/C
Assay: NCI In Vivo Anticancer Drug Screen. Data for tumor model L1210 Leukemia (intraperitoneal) in CD2F1 (CDF1) mice
Conditions: higher = longer survival
Summary of the method: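 Tumor-bearing mice (transplanted tumor) were split into treated and vehicle control groups, and the measured endpoint of each treated group was divided by that of its vehicle controls.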

[1] = endpoint: mean survival time, dose: 100.0 mg/kg/injection, schedule: Q04DX003 (ip), vehicle: saline
[2] = endpoint: mean survival time, dose: 200.0 mg/kg/injection, schedule: Q04DX003 (ip), vehicle: saline
[3] = endpoint: mean survival time, dose: 400.0 mg/kg/injection, schedule: Q04DX003 (ip), vehicle: saline
[4] = endpoint: mean survival time, dose: 100.0 mg/kg/injection, schedule: Q04DX003 (ip), vehicle: saline with Tween-80
[5] = endpoint: mean survival time, dose: 200.0 mg/kg/injection, schedule: Q04DX003 (ip), vehicle: saline with Tween-80
[6] = endpoint: mean survival time, dose: 400.0 mg/kg/injection, schedule: Q04DX003 (ip), vehicle: saline with Tween-80
[7] = endpoint: mean survival time, dose: 50.0 mg/kg/injection, schedule: Q01DX009 (ip), vehicle: saline with Tween-80
[8] = endpoint: mean survival time, dose: 50.0 mg/kg/injection, schedule: Q04DX003 (ip), vehicle: saline with Tween-80
[9] = endpoint: mean survival time, dose: 100.0 mg/kg/injection, schedule: Q01DX009 (ip), vehicle: saline with Tween-80
[10] = endpoint: mean survival time, dose: 200.0 mg/kg/injection, schedule: Q01DX009 (ip), vehicle: saline with Tween-80
[11] = endpoint: mean survival time, dose: 25.0 mg/kg/injection, schedule: Q04DX003 (ip), vehicle: saline with Tween-80
[12] = endpoint: mean survival time, dose: 100.0 mg/kg/injection, schedule: Q01DX009 (ip), vehicle: acetone
[13] = endpoint: mean survival time, dose: 100.0 mg/kg/injection, schedule: Q04DX002 (ip), vehicle: saline with Tween-80
[14] = endpoint: mean survival time, dose: 200.0 mg/kg/injection, schedule: Q04DX002 (ip), vehicle: saline with Tween-80
[15] = endpoint: mean survival time, dose: 400.0 mg/kg/injection, schedule: Q04DX002 (ip), vehicle: saline with Tween-80
[16] = endpoint: mean survival time, dose: 100.0 mg/kg/injection, schedule: Q04DX003 (ip), vehicle: other
[17] = endpoint: mean survival time, dose: 200.0 mg/kg/injection, schedule: Q04DX003 (ip), vehicle: other
[18] = endpoint: mean survival time, dose: 400.0 mg/kg/injection, schedule: Q04DX003 (ip), vehicle: other

Measured: T/C

O=c1[nH]c(=O)n(C2CC(O)C(CO)O2)cc1/C=C/c1ccccc1 (configuration not stated)
inactive: endpoint: mean survival time, dose: 6.25 mg/kg/injection, schedule: Q01DX005 (ip), vehicle: distilled water + Tween-80 97 % of control | endpoint: mean survival time, dose: 12.5 mg/kg/injection, schedule: Q01DX005 (ip), vehicle: distilled water + Tween-80 103 % of control | endpoint: mean survival time, dose: 25.0 mg/kg/injection, schedule: Q01DX005 (ip), vehicle: distilled water + Tween-80 95 % of control | endpoint: mean survival time, dose: 50.0 mg/kg/injection, schedule: Q01DX005 (ip), vehicle: distilled water + Tween-80 95 % of control | endpoint: mean survival time, dose: 100.0 mg/kg/injection, schedule: Q01DX005 (ip), vehicle: distilled water + Tween-80 96 % of control

C[C@]12CC[C@@H]3c4ccc(OC5CCCCO5)cc4CC[C@H]3[C@@H]1CC[C@@H]2O (some centres not stated)
inactive: endpoint: mean survival time, dose: 600.0 mg/kg/injection, schedule: Q01DX Z (ip), vehicle: steriod suspending solution 108 % of control | endpoint: mean survival time, dose: 800.0 mg/kg/injection, schedule: Q01DX Z (ip), vehicle: steriod suspending solution 101 % of control

CC1CC(C)(C)CC2CC(C(=O)O)(C(=O)O)CC12 (configuration not stated)
inactive: endpoint: mean survival time, dose: 100.0 mg/kg/injection, schedule: Q04DX003 (ip), vehicle: saline sonified 102 % of control | endpoint: mean survival time, dose: 200.0 mg/kg/injection, schedule: Q04DX003 (ip), vehicle: saline sonified 96 % of control | endpoint: mean survival time, dose: 400.0 mg/kg/injection, schedule: Q04DX003 (ip), vehicle: saline sonified 100 % of control

COC1CC2c3ccccc3C1C(C)=[N+]2C (configuration not stated)
inactive: [1] 101 % of control | [2] 95 % of control | [3] 94 % of control

Cc1ccc(C(=O)O)cc1
inactive: [4] 101 % of control | [5] 93 % of control | [6] 97 % of control

C=CCNC(=S)NCCO
inactive: [7] 97 % of control | [8] 111 % of control | [9] 100 % of control | [4] 103 % of control | [10] 94 % of control | [5] 103 % of control

CCCCCn1c(Cl)c(/C=N/NC(N)=S)c2ccccc21
inactive: [11] 102 % of control | [8] 93 % of control | [4] 96 % of control

COC1=CCC2=C(C1)CC(C)O2 (configuration not stated)
inactive: [12] 102 % of control | endpoint: mean survival time, dose: 200.0 mg/kg/injection, schedule: Q01DX009 (ip), vehicle: acetone 107 % of control

CCCCSP(=O)(CCl)SCCCC
inactive: endpoint: mean survival time, dose: 25.0 mg/kg/injection, schedule: Q04DX002 (ip), vehicle: saline with Tween-80 93 % of control | endpoint: mean survival time, dose: 50.0 mg/kg/injection, schedule: Q04DX002 (ip), vehicle: saline with Tween-80 97 % of control | [13] 93 % of control

COc1cc2oc3c(C)c(=O)cc4oc(-c5ccccc5)cc(c2c2c1CCC(c1ccccc1)O2)c43 (configuration not stated)
inactive: endpoint: median survival time, dose: 0.85 mg/kg/injection, schedule: Q01DX005 (ip), vehicle: Klucel (hydroxypropylcellulose) (HPC) 98 % of control | endpoint: median survival time, dose: 1.75 mg/kg/injection, schedule: Q01DX005 (ip), vehicle: Klucel (hydroxypropylcellulose) (HPC) 98 % of control | endpoint: median survival time, dose: 3.5 mg/kg/injection, schedule: Q01DX005 (ip), vehicle: Klucel (hydroxypropylcellulose) (HPC) 98 % of control and 102 % of control | endpoint: median survival time, dose: 7.0 mg/kg/injection, schedule: Q01DX005 (ip), vehicle: Klucel (hydroxypropylcellulose) (HPC) 100 % of control and 102 % of control | endpoint: median survival time, dose: 12.5 mg/kg/injection, schedule: Q01DX005 (ip), vehicle: saline with Tween-80 96 % of control | endpoint: median survival time, dose: 14.0 mg/kg/injection, schedule: Q01DX005 (ip), vehicle: Klucel (hydroxypropylcellulose) (HPC) 94 % of control and 96 % of control | endpoint: median survival time, dose: 25.0 mg/kg/injection, schedule: Q01DX005 (ip), vehicle: saline with Tween-80 95 % of control | endpoint: median survival time, dose: 28.0 mg/kg/injection, schedule: Q01DX005 (ip), vehicle: Klucel (hydroxypropylcellulose) (HPC) 98 % of control | endpoint: median survival time, dose: 50.0 mg/kg/injection, schedule: Q01DX005 (ip), vehicle: saline with Tween-80 96 % of control | endpoint: median survival time, dose: 56.0 mg/kg/injection, schedule: Q01DX005 (ip), vehicle: Klucel (hydroxypropylcellulose) (HPC) 101 % of control | endpoint: median survival time, dose: 100.0 mg/kg/injection, schedule: Q01DX005 (ip), vehicle: saline with Tween-80 91 % of control | endpoint: median survival time, dose: 200.0 mg/kg/injection, schedule: Q01DX005 (ip), vehicle: saline with Tween-80 95 % of control

O=C1NC(=O)C(Br)C(=O)N1
inactive: endpoint: mean survival time, dose: 75.0 mg/kg/injection, schedule: Q01DX001 (ip), vehicle: saline 102 % of control | endpoint: mean survival time, dose: 150.0 mg/kg/injection, schedule: Q01DX001 (ip), vehicle: saline 100 % of control

CC1(C)CC=C(c2ccccc2)OC1c1ccccc1 (configuration not stated)
inactive: endpoint: mean survival time, dose: 100.0 mg/kg/injection, schedule: Q04DX002 (ip), vehicle: other 98 % of control | endpoint: mean survival time, dose: 200.0 mg/kg/injection, schedule: Q04DX002 (ip), vehicle: other 94 % of control | endpoint: mean survival time, dose: 400.0 mg/kg/injection, schedule: Q04DX002 (ip), vehicle: other 102 % of control

O/N=C/c1cccc(CC(O)(C(F)(F)F)C(F)(F)F)n1
inactive: [4] 97 % of control | [5] 95 % of control | [6] 95 % of control

O=P1(c2ccccc2)NCC(Br)CO1 (configuration not stated)
inactive: endpoint: mean survival time, dose: 31.3 mg/kg/injection, schedule: Q01DX001 (ip), vehicle: other 95 % of control | endpoint: mean survival time, dose: 62.5 mg/kg/injection, schedule: Q01DX001 (ip), vehicle: other 95 % of control | endpoint: mean survival time, dose: 125.0 mg/kg/injection, schedule: Q01DX001 (ip), vehicle: other 100 % of control | endpoint: mean survival time, dose: 250.0 mg/kg/injection, schedule: Q01DX001 (ip), vehicle: other 100 % of control | endpoint: mean survival time, dose: 500.0 mg/kg/injection, schedule: Q01DX001 (ip), vehicle: other 95 % of control

CCN(C(=O)C(F)(F)F)C(C)(C)C(SSSC(c1ccc(Cl)cc1)C(C)(C)N(CC)C(=O)C(F)(F)F)c1ccc(Cl)cc1 (configuration not stated)
inactive: [1] 103 % of control | [2] 105 % of control | [3] 86 % of control

C/C(=N\NC(N)=S)C1=C(O)C(Cc2ccccc2)NC1=O (configuration not stated)
inactive: [13] 100 % of control | [14] 100 % of control | [15] 100 % of control

O=C(N=C=S)c1ccccc1
inactive: [16] 90 % of control | [17] 101 % of control | [18] 101 % of control

CC(=O)CC(=O)C(F)(F)F.CC(=O)CC(=O)C(F)(F)F.[O]=[V]
inactive: endpoint: mean survival time, dose: 3.8 mg/kg/injection, schedule: Q01DX009 (ip), vehicle: saline with Tween-80 95 % of control | endpoint: mean survival time, dose: 7.5 mg/kg/injection, schedule: Q01DX009 (ip), vehicle: saline with Tween-80 93 % of control | endpoint: mean survival time, dose: 15.0 mg/kg/injection, schedule: Q01DX009 (ip), vehicle: saline with Tween-80 92 % of control

S=C(NNC(=S)Nc1ccc(Cl)cc1)NNc1ccccc1
inactive: endpoint: mean survival time, dose: 50.0 mg/kg/injection, schedule: Q01DX009 (ip), vehicle: acetone 95 % of control | [12] 97 % of control

O=C(CBr)c1cccc(OC(=O)c2ccccc2)c1
inactive: endpoint: mean survival time, dose: 12.5 mg/kg/injection, schedule: Q01DX009 (ip), vehicle: saline with Tween-80 100 % of control | endpoint: mean survival time, dose: 12.5 mg/kg/injection, schedule: Q04DX003 (ip), vehicle: saline with Tween-80 107 % of control | endpoint: mean survival time, dose: 25.0 mg/kg/injection, schedule: Q01DX009 (ip), vehicle: saline with Tween-80 100 % of control | [11] 102 % of control | [8] 113 % of control

O=C=NC(=O)c1ccccc1
inactive: [13] 96 % of control | [14] 100 % of control | [15] 118 % of control

BrC/C(=N\N1CCCCCC1)c1ccc(-c2ccccc2)cc1
inactive: endpoint: mean survival time, dose: 100.0 mg/kg/injection, schedule: Q01DX001 (ip), vehicle: saline 92 % of control | endpoint: mean survival time, dose: 200.0 mg/kg/injection, schedule: Q01DX001 (ip), vehicle: saline 93 % of control | endpoint: mean survival time, dose: 400.0 mg/kg/injection, schedule: Q01DX001 (ip), vehicle: saline 94 % of control

CCC(O)C(C)[N+](=O)[O-] (configuration not stated)
inactive: [7] 95 % of control | [9] 102 % of control | [10] 95 % of control

CC(C)(CO)C(O)C(=O)NCCS(=O)c1ccc(F)cc1 (configuration not stated)
inactive: [16] 100 % of control | [17] 96 % of control | [18] 100 % of control

COc1ccc(N)cc1OC
inactive: endpoint: mean survival time, dose: 100.0 mg/kg/injection, schedule: Q01DX009 (ip), vehicle: saline 96 % of control | endpoint: mean survival time, dose: 200.0 mg/kg/injection, schedule: Q01DX009 (ip), vehicle: saline 102 % of control | endpoint: mean survival time, dose: 400.0 mg/kg/injection, schedule: Q01DX009 (ip), vehicle: saline 98 % of control

COc1ccc(NC(=O)CC(C)C(=O)O)cc1 (configuration not stated)
inactive: [4] 101 % of control | [5] 100 % of control | [6] 101 % of control
